The text below walks through data of US11339165B2, “Pyrazolopyrimidines having activity against the respiratory syncytial virus (RSV)” (priority 2017, dated 2022).

The term CC50 denotes the concentration giving 50% cytotoxicity. Broadly, the EC50 is the concentration needed to bring the measured effect to its halfway point.

The nature of one data set: in vitro. Conditions: human, TOX HELA CC50 (μM).
The next data set has as its system rgRSV224 virus. Kind of data set: Antiviral activity: rgRSV224 (GFP) replication in HeLa cells. It counts as cell-based, respiratory syncytial virus (RSV). The settings on record: human respiratory syncytial virus, HeLa, 72 h, read-out: RSV HELA EC50 (μM), rgRSV224 virus (MOI=1), HeLa cells, GFP expression three days post-virus exposure.

For `C[C@@H]1c2ccccc2CCN1C(=O)c1cc(C2CC2)n2nc(-c3ccc(N4CC[C@H](NCC(F)(F)F)C4)cc3F)cc2n1` [Compound 94, (7-cyclopropyl-2-(2-fluoro-4-((S)-3-((2,2,2-trifluoroethyl)amino)pyrrolidin-1-yl)phenyl)pyrazolo[1,5-a]pyrimidin-5-yl)((R)-1-methyl-3,4-dihydroisoquinolin-2(1H)-yl)methanone], in “in vitro”, the CC50 at 3 days was over 100 µM. Further, in the data set on rgRSV224 virus, the 50% effective concentration (EC50) was 0.19 µM.
For `COc1cc(N2CC[C@H](C(N)=O)C2)nc(F)c1-c1cc2nc(C(=O)N3CCc4ccccc4[C@H]3C)cc(C3CC3)n2n1` [Compound 86, (3S)-1-(5-{7-Cyclopropyl-5-[(1R)-1-methyl-1,2,3,4-tetrahydroisoquinoline-2-carbonyl]-pyrazolo[1,5-a]pyrimidin-2-yl}-6-fluoro-4-methoxypyridin-2-yl)pyrrolidine-3-carboxamide] the same measures were 49.5 µM and 0.161 µM.
The matching figures for `CNC(=O)C1CCCN(c2ccc(-c3cc4nc(C(=O)N5CCc6ccccc6[C@H]5C)cc(C5CC5)n4n3)c(F)c2)C1` (stereo partly drawn) [Compound 73, 1-(4-{7-Cyclopropyl-5-[(1R)-1-methyl-1,2,3,4-tetrahydroisoquinoline-2-carbonyl]-pyrazolo[1,5-a]pyrimidin-2-yl}-3-fluorophenyl)-N-methylpiperidine-3-carboxamide]: over 100 µM and 0.101 µM.
The matching figures for `C[C@@H]1c2ccccc2CCN1C(=O)c1cc(C2CC2)n2nc(-c3ccc(N4CC[C@](C)(CC(N)=O)C4)cc3F)cc2n1` (single isomer, unassigned) [Compound 23, 2-[(3*R)-1-(4-{7-Cyclopropyl-5-[(1R)-1-methyl-1,2,3,4-tetrahydroisoquinoline-2-carbonyl]pyrazolo[1,5-a]pyrimidin-2-yl}-3-fluorophenyl)-3-methylpyrrolidin-3-yl]acetamide]: 30.3 µM and 0.032 µM.
The compound `C[C@@H]1c2ccccc2CCN1C(=O)c1cc(C2CC2)n2nc(-c3ccc(N4CC[C@@](C)(CC(N)=O)C4)cc3F)cc2n1` (single isomer, unassigned) [Compound 24, 2-[(3*S)-1-(4-{7-Cyclopropyl-5-[(1R)-1-methyl-1,2,3,4-tetrahydroisoquinoline-2-carbonyl]pyrazolo[1,5-a]pyrimidin-2-yl}-3-fluorophenyl)-3-methylpyrrolidin-3-yl]acetamide] displayed a CC50 at 3 days in “in vitro” of 26.4 µM. In the data set with rgRSV224 virus, the EC50 worked out at 0.03 µM.
For `C[C@@H]1c2ccccc2CCN1C(=O)c1cc(C2CC2)n2nc(-c3ccc(N4C[C@H](C)[C@@H](O)C4)cc3F)cc2n1` (stereo in doubt) [Compound 99, (7-cyclopropyl-2-(2-fluoro-4-((trans)-3-hydroxy-4-methylpyrrolidin-1-yl)phenyl)pyrazolo[1,5-a]pyrimidin-5-yl)((R)-1-methyl-3,4-dihydroisoquinolin-2(1H)-yl)methanone] the same measures were over 100 µM and 0.092 µM.
In “in vitro”, `COC(=O)N[C@H]1CCN(c2ccc(-c3cc4nc(C(=O)N5CCc6ccccc6[C@H]5C)cc(C5CC5)n4n3)c(F)c2)C1` [Compound 10, Methyl N-[(3S)-1-[4-{7-cyclopropyl-5-[(1R)-1-methyl-1,2,3,4-tetrahydroisoquinoline-2-carbonyl]pyrazolo[1,5-a]pyrimidin-2-yl}-3-fluorophenyl)pyrrolidin-3-yl]carbamate] gave a CC50 at 3 days of over 100 µM. Further, the EC50 in the data set on rgRSV224 virus is 0.07 µM.
In “in vitro”, `C[C@@H]1c2ccccc2CCN1C(=O)c1cc(C2CC2)n2nc(-c3ccc(N4CC[C@@H](OC(N)=O)C4)cc3F)cc2n1` [Compound 77, (3R)-1-(4-{7-Cyclopropyl-5-[(1R)-1-methyl-1,2,3,4-tetrahydroisoquinoline-2-carbonyl]pyrazolo[1,5-a]pyrimidin-2-yl}-3-fluorophenyl)pyrrolidin-3-yl carbamate] displayed a half-maximal cytotoxic concentration (CC50) at 3 days of over 100 µM. For the same compound, the EC50 in the data set on rgRSV224 virus came out at 0.082 µM.
As to `C[C@@H]1c2ccsc2CCN1C(=O)c1cc(C2CC2)n2nc(-c3ccc(N4CC[C@@](C)(C(N)=O)C4)cc3F)cc2n1` (single isomer, unassigned) [Compound 44, (3*R)-1-(4-{7-Cyclopropyl-5-[(4*R)-4-methyl-4,5,6,7-tetrahydro-thieno[3,2-c]pyridine-5-carbonyl]pyrazolo[1,5-a]pyrimidin-2-yl}-3-fluorophenyl)-3-methylpyrrolidine-3-carboxamide], the CC50 at 3 days in the data set “in vitro” is 45.2 µM. In addition, in the data set with rgRSV224 virus, the EC50 amounted to 0.019 µM.
For `C[C@@H]1c2ccccc2CCN1C(=O)c1cc(C2CC2)n2nc(-c3ccc(N4C[C@@H](O)[C@@H](O)C4)cc3F)cc2n1` [Compound 95, (7-cyclopropyl-2-(4-((3R,4S)-3,4-dihydroxypyrrolidin-1-yl)-2-fluorophenyl)pyrazolo[1,5-a]pyrimidin-5-yl)((R)-1-methyl-3,4-dihydroisoquinolin-2(1H)-yl)methanone] the same measures were 31.1 µM and 0.018 µM.
For `C[C@@H]1c2ccccc2CCN1C(=O)c1cc(C2CC2)n2nc(-c3ccc(N4CC[C@H](O)C4)cc3F)cc2n1` [Compound 14, (3S)-1-(4-{7-Cyclopropyl-5-[(1R)-1-methyl-1,2,3,4-tetrahydroisoquinoline-2-carbonyl]-pyrazolo[1,5-a]pyrimidin-2-yl}-3-fluorophenyl)pyrrolidin-3-ol] the same measures were 81.2 µM and 0.039 µM.
The matching figures for `C[C@@H]1c2ccccc2CCN1C(=O)c1cc(C2CC2)n2nc(-c3ccc(N4CC[C@@H](C(C)(C)C(N)=O)C4)cc3F)cc2n1` (single isomer, unassigned) [Compound 28, 2-[(3*S)-1-(4-{7-Cyclopropyl-5-[(1R)-1-methyl-1,2,3,4-tetrahydroisoquinoline-2-carbonyl]pyrazolo[1,5-a]pyrimidin-2-yl}-3-fluorophenyl)pyrrolidin-3-yl]-2-methylpropanamide]: 32.2 µM and 0.072 µM.
The compound `C[C@@H]1c2ccccc2CCN1C(=O)c1cc(C2CC2)n2nc(-c3c(F)cc(N4CC[C@H](C(N)=O)C4)cc3OCCO)cc2n1` [Compound 106, (S)-1-(4-(7-cyclopropyl-5-((R)-1-methyl-1,2,3,4-tetrahydroisoquinoline-2-carbonyl)pyrazolo[1,5-a]pyrimidin-2-yl)-3-fluoro-5-(2-hydroxyethoxy)phenyl)pyrrolidine-3-carboxamide] registered a CC50 at 3 days in “in vitro” of 21 µM. In addition, the concentration giving a half-maximal response (EC50) in the data set with rgRSV224 virus turned out to be 0.089 µM.
For `C[C@@H]1c2ccccc2CCN1C(=O)c1cc(C2CC2)n2nc(-c3ccc(N4CC[C@H](c5nnn[nH]5)C4)cc3F)cc2n1` [Compound 3, (1R)-2-(7-Cyclopropyl-2-{2-fluoro-4-[(3S)-3-(1H-1,2,3,4-tetrazol-5-yl)pyrrolidin-1-yl]phenyl}pyrazolo[1,5-a]pyrimidine-5-carbonyl)-1-methyl-1,2,3,4-tetrahydroisoquinoline] the same measures were 43 µM and 0.063 µM.
The matching figures for `C[C@@H]1c2ccccc2CCN1C(=O)c1cc(C2CC2)n2nc(-c3ccc(N4CC[C@H](C(N)=S)C4)cc3F)cc2n1` [Compound 101, (S)-1-(4-(7-cyclopropyl-5-((R)-1-methyl-1,2,3,4-tetrahydroisoquinoline-2-carbonyl)pyrazolo[1,5-a]pyrimidin-2-yl)-3-fluorophenyl)pyrrolidine-3-carbothioamide]: 45.4 µM and 0.058 µM.
For `CO[C@H]1CN(c2ccc(-c3cc4nc(C(=O)N5CCc6ccccc6[C@H]5C)cc(C5CC5)n4n3)c(F)c2)C[C@@H]1O` (stereo in doubt) [Compound 96, (7-cyclopropyl-2-(2-fluoro-4-((trans)-3-hydroxy-4-methoxypyrrolidin-1-yl)phenyl)pyrazolo[1,5-a]pyrimidin-5-yl)((R)-1-methyl-3,4-dihydroisoquinolin-2(1H)-yl)methanone] the same measures were 22.5 µM and 0.05 µM.
With `C[C@@H]1c2ccccc2CCN1C(=O)c1cc(C2CC2)n2nc(-c3ccc(N4CCC(CC(N)=O)CC4)cc3F)cc2n1` [Compound 70, 2-[1-(4-{7-Cyclopropyl-5-[(1R)-1-methyl-1,2,3,4-tetrahydroisoquinoline-2-carbonyl]-pyrazolo[1,5-a]pyrimidin-2-yl}-3-fluorophenyl)piperidin-4-yl] acetamide], the midpoint of cytotoxicity in “in vitro”, the CC50 at 3 days, lay at 28.2 µM. Further, the EC50 with rgRSV224 virus was found to be 0.104 µM.
On to `C[C@@H]1c2ccccc2CCN1C(=O)c1cc(C2CC2)n2nc(-c3ccc(N4CCCC(CC(N)=O)C4)cc3F)cc2n1` (stereo partly drawn) [Compound 71, 2-[1-(4-{7-Cyclopropyl-5-[(1R)-1-methyl-1,2,3,4-tetrahydroisoquinoline-2-carbonyl]-pyrazolo[1,5-a]pyrimidin-2-yl}-3-fluorophenyl)piperidin-3-yl]acetamide], for which the CC50 at 3 days in the data set “in vitro” was found to be 29.8 µM. In addition, the EC50 in the data set with rgRSV224 virus is 0.105 µM.
For `Cc1ccc(-c2cc(C(=O)N3CCc4ccccc4[C@H]3C)nc3cc(-c4ccc(N5CC[C@H](C(N)=O)C5)cc4F)nn23)cc1` [Compound 58, (3S)-1-(3-Fluoro-4-{5-[(1R)-1-methyl-1,2,3,4-tetrahydroisoquinoline-2-carbonyl]-7-(4-methylphenyl)pyrazolo[1,5-a]pyrimidin-2-yl}phenyl)pyrrolidine-3-carboxamide] the same measures were over 100 µM and 0.036 µM.
In turn, `C[C@@H]1c2ccccc2CCN1C(=O)c1cc(C2CC2)n2nc(-c3ccc(N4CC[C@H](C(C)(C)C(N)=O)C4)cc3F)cc2n1` (single isomer, unassigned) [Compound 27, 2-[(3*R)-1-(4-{7-Cyclopropyl-5-[(1R)-1-methyl-1,2,3,4-tetrahydroisoquinoline-2-carbonyl]pyrazolo[1,5-a]pyrimidin-2-yl}-3-fluorophenyl)pyrrolidin-3-yl]-2-methylpropanamide] came in with a CC50 at 3 days in “in vitro” of 34.4 µM. Further, the EC50 in the data set with rgRSV224 virus amounted to 0.089 µM.
